Results taken from patent publication US9766236B2, “Taste receptor internalization assay” (PepsiCo, Inc., priority 2013, dated 2017).
Residues, ends and D or L forms follow the SMILES beside them.

How the values were obtained:
GLUT4 = molecular target: T1, GLUT4 (Homo sapiens, UniProt P14672); test: High-content imaging ring assay for GLUT4 internalization in NCI-H716 cells; format: cell-based; conditions: endogenous GLUT4, FIG. 4B
T1 construct: we tested internalization of endogenous GLUT4 in NCI-H716 cells; endogenous in cells; host or cells: NCI-H716 (ATCC CCL-251)
T1 sequence (P14672 1-509): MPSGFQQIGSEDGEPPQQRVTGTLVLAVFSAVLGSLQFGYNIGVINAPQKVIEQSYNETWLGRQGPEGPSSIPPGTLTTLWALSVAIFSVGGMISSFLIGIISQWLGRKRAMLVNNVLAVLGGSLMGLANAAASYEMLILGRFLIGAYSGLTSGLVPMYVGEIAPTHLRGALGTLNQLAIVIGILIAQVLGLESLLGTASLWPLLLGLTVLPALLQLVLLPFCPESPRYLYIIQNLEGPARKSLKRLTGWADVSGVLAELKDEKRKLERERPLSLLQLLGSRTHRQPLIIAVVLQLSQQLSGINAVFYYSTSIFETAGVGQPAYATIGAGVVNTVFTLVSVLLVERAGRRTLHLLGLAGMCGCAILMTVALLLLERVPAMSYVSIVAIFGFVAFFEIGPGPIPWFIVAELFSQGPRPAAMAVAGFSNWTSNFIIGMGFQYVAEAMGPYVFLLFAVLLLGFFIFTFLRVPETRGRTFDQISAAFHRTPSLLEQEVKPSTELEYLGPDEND
Source text: The internalization assay disclosed herein, also called a “ring assay,” detects localization of receptors using antibodies specific for the receptors. A first detectable label, specific for nucleic acid (e.g., DAPI, Hoechst 33342, DRAQ5, DRAQ7, DRAQ9), is used to label cell nuclei; this labeling provides information such as the number of cells in a field and differentiates between the nuclear (e.g., DAPI-positive) and cytoplasmic (e.g., DAPI-negative) compartments. Antibodies which specifically bind to a taste receptor are used in conjunction with secondary antibodies conjugated with a second detectable label which can be differentiated from the first detectable label (e.g., FITC, TRITC, Cy3, Cy5, Alexa 350, 488, 546, 555, 568, 594, 633, 647). Diffuse circle staining is observed in the absence of a stimulus (e.g., in the presence of buffer alone). In the presence of a stimulus, however, a “ring” of internalized receptors is visualized. In some embodiments, ring-positive cells are calculated by correlation coefficient for pixel values of the nuclear and receptor signals. The extent of internalization can be expressed as percentage (mean±SD) of cells showing a continuous ring staining from multiple (e.g., quadruplicate) data points.
To explore further the role of GLUT4 in signaling by artificial sweeteners, we tested internalization of endogenous GLUT4 in NCI-H716 cells.

T2R14 = molecular target: T2, T2R14 (Homo sapiens, UniProt Q9NYV8); test: High-content imaging ring assay for T2R14 internalization in NCI-H716 cells; format: cell-based; conditions: compounds used at 10 mM, 37° C., immunofluorescence
T2 construct: These cells express the bitter receptors T2R1, T2R3, T2R4, T2R5, T2R7, T2R8, T2R9, T2R10, T2R13, T2R14; endogenous in cells; host or cells: NCI-H716 (ATCC CCL-251)
T2 sequence (Q9NYV8 1-317): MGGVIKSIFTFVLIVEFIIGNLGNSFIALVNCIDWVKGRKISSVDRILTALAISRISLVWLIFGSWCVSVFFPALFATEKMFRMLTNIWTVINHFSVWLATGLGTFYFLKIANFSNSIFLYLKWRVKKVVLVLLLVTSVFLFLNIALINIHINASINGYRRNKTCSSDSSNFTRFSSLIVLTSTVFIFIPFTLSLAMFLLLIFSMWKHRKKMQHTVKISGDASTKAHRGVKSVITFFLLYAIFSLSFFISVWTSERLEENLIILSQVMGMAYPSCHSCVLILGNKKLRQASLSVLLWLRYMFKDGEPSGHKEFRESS
Source text: The internalization assay disclosed herein, also called a “ring assay,” detects localization of receptors using antibodies specific for the receptors. A first detectable label, specific for nucleic acid (e.g., DAPI, Hoechst 33342, DRAQ5, DRAQ7, DRAQ9), is used to label cell nuclei; this labeling provides information such as the number of cells in a field and differentiates between the nuclear (e.g., DAPI-positive) and cytoplasmic (e.g., DAPI-negative) compartments. Antibodies which specifically bind to a taste receptor are used in conjunction with secondary antibodies conjugated with a second detectable label which can be differentiated from the first detectable label (e.g., FITC, TRITC, Cy3, Cy5, Alexa 350, 488, 546, 555, 568, 594, 633, 647). Diffuse circle staining is observed in the absence of a stimulus (e.g., in the presence of buffer alone). In the presence of a stimulus, however, a “ring” of internalized receptors is visualized. In some embodiments, ring-positive cells are calculated by correlation coefficient for pixel values of the nuclear and receptor signals. The extent of internalization can be expressed as percentage (mean±SD) of cells showing a continuous ring staining from multiple (e.g., quadruplicate) data points. NCI-H716 cell were grown in RPMI1690 media supplemented with 10% fetal bovine serum. Cells were seeded at density of 20,000 cells/well on PDL-coated 384-well plates. […] Alexa 488-conjugated antibodies and Hoechst 33342 were from Life Technology. 20,000 cells in PBS+10% FBS were plated on clear-bottom, PDL-coated, black-wall 384-well plates suitable for HCA imaging. For […] studies compounds were added to the cells. Stock solutions of all compounds were diluted in dimethyl sulfoxide (DMSO) and used at 10 mM. Control groups of cells also received DMSO (0.1%) in medium. NCI-H716 cells were stimulated with RebA (Purecircle) at 10 mM for indicating time points at 37° C. The cells were then fixed and processed for indirect immunofluorescence with antibodies against bitter receptor […]. All images were acquired with a 20× objective using ImageXpress Micro automated microscope. Hoechst 33342 staining is pseudo-colored blue and antibody specific staining is pseudo-colored green. […] The extent of internalization is expressed as the percentage (means±S.D.) of cells showing a continuous “Ring” staining from quadruplicate data points. Recycling of […] receptor correlates with decreased number of “Ring”-positive cells. Statistical analyses and graphs were made with Tibco Spotfire or GraphPad Prism.

Row | GLUT4 internalization ("Ring"-positive cells) (GLUT4) | T2R14 internalization ("Ring"-positive cells) (T2R14; FIG. 2) | T2R14 internalization ("Ring"-positive cells) (T2R14; FIG. 2, listed as Reb A) | SMILES
1 | GLUT4 internalization increased |  |  | COC(=O)[C@H](Cc1ccccc1)NC(=O)[C@@H](N)CC(=O)O [aspartame] (H-Asp-Phe-OMe)
2 |  | T2R14 internalization increases |  | C=C1C[C@@]23CC[C@H]4[C@@](C)(CCC[C@@]4(C)C(=O)O[C@@H]4O[C@H](CO)[C@@H](O)[C@H](O)[C@H]4O)[C@@H]2CC[C@]1(O[C@@H]1O[C@H](CO)[C@@H](O)[C@H](O[C@@H]2O[C@H](CO)[C@@H](O)[C@H](O)[C@H]2O)[C@H]1O[C@@H]1O[C@@H](C)[C@H](O)[C@@H](O)[C@H]1O)C3 [RebC]
3 | GLUT4 internalization increased |  |  | CC1=CC(=O)[N-]S(=O)(=O)O1.[K+] [Ace-K]

The remaining lines, values behind:

Row | SMILES | GLUT4 internalization ("Ring"-positive cells) (GLUT4) | T2R14 internalization ("Ring"-positive cells) (T2R14; FIG. 2) | T2R14 internalization ("Ring"-positive cells) (T2R14; FIG. 2, listed as Reb A)
4 | O=C1NS(=O)(=O)c2ccccc21 [saccharine] | GLUT4 internalization increased |  | 
5 | C=C1C[C@@]23CC[C@H]4[C@@](C)(CCC[C@@]4(C)C(=O)O[C@@H]4O[C@H](CO)[C@@H](O)[C@H](O)[C@H]4O)[C@@H]2CC[C@]1(O[C@@H]1O[C@H](CO)[C@@H](O)[C@H](O[C@@H]2O[C@H](CO)[C@@H](O)[C@H](O)[C@H]2O)[C@H]1O[C@@H]1O[C@H](CO)[C@@H](O)[C@H](O)[C@H]1O)C3 [RebA] |  | T2R14 internalization increases | induces T2R14 internalization
6 | C=C1C[C@@]23CC[C@H]4[C@@](C)(CCC[C@@]4(C)C(=O)O[C@@H]4O[C@H](CO)[C@@H](O)[C@H](O)[C@H]4O[C@@H]4O[C@H](CO)[C@@H](O)[C@H](O)[C@H]4O)[C@@H]2CC[C@]1(O[C@@H]1O[C@H](CO)[C@@H](O)[C@H](O[C@@H]2O[C@H](CO)[C@@H](O)[C@H](O)[C@H]2O)[C@H]1O[C@@H]1O[C@H](CO)[C@@H](O)[C@H](O)[C@H]1O)C3 [RebD] |  | internalization was not observed | 
